# Measurements published in patent US11578087B2, “Oxaborole esters and uses thereof” (priority 2016, dated 2023).
# pIC50: −log10 of the molar value.
# Legend:
# [1] = tested on: IL3000 T. congolense (drug sensitive) strain; assay: In vitro Alamar Blue 72 h drug sensitivity assay for T. congolense; format: cell-based, Trypanosoma congolense; conditions: Trypanosoma congolense, 72 h, bloodstream form, 69 h + 3 h Resazurin, 34° C., read-out: IC50: I Org. Growth T. congolense 3 d
# Outline: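 Bloodstream-form trypanosomes in HMI medium with 20% bovine serum were exposed to compounds for 69 h at 34° C, 5% CO2, then resazurin for another 3 h. Fluorescence read at ex 536/em 588 nm; IC50 from 11-point sigmoidal dose-response curves, at least three independent runs.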
# [2] = tested on: STIB719/ILRAD560 T. vivax (drug sensitive) strain; assay: Ex vivo Alamar Blue 48 h drug sensitivity assay for T. vivax; format: cell-based; conditions: Trypanosoma vivax, ex vivo bloodstream form from mouse, 45 hrs + 3 hrs Resazurin, 37° C., read-out: IC50: I Hypoxanthine Incorporation T. vivax 2 d
# [3] = tested on: T. cruzi amastigote (Td Tomato-modified) in Vero cells; assay: In vitro IC50 measurement of T. cruzi amastigote killing using Td Tomato-modified T. cruzi; format: cell-based; conditions: Trypanosoma cruzi, 72 h, fluorescence, read-out: IC50: I Org. amastigote Growth T. cruzi 3 d
# Outline: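 Vero cells infected with Td Tomato-expressing T. cruzi, treated with compound at 5 uM to 5 nM final, incubated 72 h at 37 °C. Fluorescence (Ex 544/Em 612 nm) read at Day 0 and Day 3, Day 0 subtracted; IC50 and IC90 by nonlinear regression.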
SMILES,pIC50 [1],pIC50 [2],pIC50 [3]
"Cc1c(C(=O)N[C@H](C(=O)OCc2ccc(F)cc2)[C@H](C)O)ccc2c1B(O)OC2 [Example 6-088, 4-Fluorobenzyl (1-hydroxy-7-methyl-1,3-dihydrobenzo[c][1,2]oxaborole-6-carbonyl)-L-allothreoninate]",8.00 to 9.29,7.30 to 9.29,–
"Cc1c(C(=O)N[C@H](C(=O)OCc2ccc(F)cc2F)C(C)C)ccc2c1B(O)OC2 [Example 6-039, 2,4-Difluorobenzyl (1-hydroxy-7-methyl-1,3-dihydrobenzo[c][1,2]oxaborole-6-carbonyl)-L-valinate]",8.00 to 9.29,> 9.30,–
"COC(=O)[C@@H](CCc1ccccc1)NC(=O)c1ccc2c(c1)B(O)OC2 [Example 6-025, Methyl (R)-2-(1-hydroxy-1,3-dihydrobenzo[c][1,2]oxaborole-6-carboxamido)-4-phenylbutanoate]",5.30 to 8.00,< 5.70,–
"CC(C)c1c(C(=O)N[C@H](C(=O)OCc2ccc(S(C)(=O)=O)cc2)C(C)C)ccc2c1B(O)OC2 [Example 6-084, 4-(Methylsulfonyl)benzyl (1-hydroxy-7-isopropyl-1,3-dihydrobenzo[c][1,2]oxaborole-6-carbonyl)-L-valinate]",5.30 to 8.00,7.30 to 9.29,–
"COC(=O)[C@H](CCc1ccccc1)NC(=O)c1ccc2c(c1)B(O)OC2 [Example 6-027, Methyl (S)-2-(1-hydroxy-1,3-dihydrobenzo[c][1,2]oxaborole-6-carboxamido)-4-phenylbutanoate]",5.30 to 8.00,5.70 to 7.30,–
"C[C@H](NC(=O)c1ccc2c(c1)B(O)OC2)C(=O)OCc1ccccc1 [Example 6-174, Benzyl (1-hydroxy-1,3-dihydrobenzo[c][1,2]oxaborole-6-carbonyl)-L-alaninate]",8.00 to 9.29,5.70 to 7.30,–
"COC(=O)[C@H](C)NC(=O)c1ccc2c(c1)B(O)OC2 [Example 6-016, Methyl (1-hydroxy-1,3-dihydrobenzo[c][1,2]oxaborole-6-carbonyl)-L-alaninate]",5.30 to 8.00,< 5.70,–
"Cc1c(C(=O)N[C@H](C(=O)OCc2cc(F)cc(F)c2)C(C)C)ccc2c1B(O)OC2 [Example 6-048, 3,5-Difluorobenzyl (1-hydroxy-7-methyl-1,3-dihydrobenzo[c][1,2]oxaborole-6-carbonyl)-L-valinate]",> 9.30,> 9.30,–
"C[C@H](OC(=O)[C@H](Cc1ccccc1)NC(=O)c1ccc2c(c1)B(O)OC2)c1ccccc1 [Example 6-024, (S)-1-phenylethyl (1-hydroxy-1,3-dihydrobenzo[c][1,2]oxaborole-6-carbonyl)-L-phenylalaninate]",8.00 to 9.29,5.70 to 7.30,–
"Cc1c(C(=O)N[C@H](C(=O)OCC2(O)CCCCC2)C(C)C)ccc2c1B(O)OC2 [Example 6-229, (1-hydroxycyclohexyl)methyl (1-hydroxy-7-methyl-1,3-dihydrobenzo[c][1,2]oxaborole-6-carbonyl)-L-valinate]",> 9.30,–,≥ 7.70
"Cc1c(C(=O)N[C@H](C(=O)OCC(C)N2CCOCC2)C(C)C)ccc2c1B(O)OC2 (stereo partly drawn) [Example 6-207, 2-morpholinopropyl (1-hydroxy-7-methyl-1,3-dihydrobenzo[c][1,2]oxaborole-6-carbonyl)-L-valinate]",8.00 to 9.29,–,6.00 to 7.68
"Cc1c(C(=O)N[C@H](C(=O)OC(C(F)(F)F)C(F)(F)F)C(C)C)ccc2c1B(O)OC2 [Example 6-156, 1,1,1,3,3,3-Hexafluoropropan-2-yl (1-hydroxy-7-methyl-1,3-dihydrobenzo[c][1,2]oxaborole-6-carbonyl)-L-valinate]",5.30 to 8.00,–,≤ 6.00
"Cc1c(C(=O)N[C@H](C(=O)OCc2ccc(C#N)cc2)C(C)C)ccc2c1B(O)OC2 [Example 6-044, 4-Cyanobenzyl (1-hydroxy-7-methyl-1,3-dihydrobenzo[c][1,2]oxaborole-6-carbonyl)-L-valinate]",> 9.30,–,≥ 7.70
"Cc1c(C(=O)N[C@H](C(=O)OCc2ncc[nH]2)C(C)C)ccc2c1B(O)OC2 [Example 6-143, (1H-Imidazol-2-yl)methyl (1-hydroxy-7-methyl-1,3-dihydrobenzo[c][1,2]oxaborole-6-carbonyl)-L-valinate]",5.30 to 8.00,–,≤ 6.00
"Cc1c(C(=O)N[C@H](C(=O)OCc2ccc(F)cc2)[C@@H](C)O)ccc2c1B(O)OC2 [Example 6-074, 4-Fluorobenzyl (1-hydroxy-7-methyl-1,3-dihydrobenzo[c][1,2]oxaborole-6-carbonyl)-L-threoninate]",> 9.30,–,6.00 to 7.68
"Cc1c(C(=O)N[C@H](C(=O)OC2CCOCC2)C(C)C)ccc2c1B(O)OC2 [Example 6-134, Tetrahydro-2H-pyran-4-yl (1-hydroxy-7-methyl-1,3-dihydrobenzo[c][1,2]oxaborole-6-carbonyl)-L-valinate]",> 9.30,–,≥ 7.70

SMILES,pIC50 [1],pIC50 [2],pIC50 [3]
"Cc1c(C(=O)N[C@H](C(=O)O[C@H]2CCOC2)C(C)C)ccc2c1B(O)OC2 [Example 6-140, (S)-Tetrahydrofuran-3-yl (1-hydroxy-7-methyl-1,3-dihydrobenzo[c][1,2]oxaborole-6-carbonyl)-L-valinate]",8.00 to 9.29,–,6.00 to 7.68
"Cc1c(C(=O)N[C@H](C(=O)OC2COC2)C(C)C)ccc2c1B(O)OC2 [Example 6-135, Oxetan-3-yl (1-hydroxy-7-methyl-1,3-dihydrobenzo[c][1,2]oxaborole-6-carbonyl)-L-valinate]",> 9.30,–,6.00 to 7.68
"Cc1c(C(=O)N[C@H](C(=O)OCCc2ccccn2)C(C)C)ccc2c1B(O)OC2 [Example 6-173, 2-(Pyridin-2-yl)ethyl (1-hydroxy-7-methyl-1,3-dihydrobenzo[c][1,2]oxaborole-6-carbonyl)-L-valinate]",> 9.30,–,≥ 7.70
"Cc1c(C(=O)N[C@H](C(=O)OCc2c[nH]cn2)C(C)C)ccc2c1B(O)OC2 [Example 6-138, (1H-Imidazol-4-yl)methyl (1-hydroxy-7-methyl-1,3-dihydrobenzo[c][1,2]oxaborole-6-carbonyl)-L-valinate]",5.30 to 8.00,–,≤ 6.00
"Cc1c(C(=O)N[C@H](C(=O)OCCc2ccc(F)cc2)C(C)C)ccc2c1B(O)OC2 [Example 6-121, 4-Fluorophenethyl (1-hydroxy-7-methyl-1,3-dihydrobenzo[c][1,2]oxaborole-6-carbonyl)-L-valinate]",> 9.30,–,≥ 7.70
"CC(C)[C@H](NC(=O)c1ccc2c(c1)B(O)OC2)C(=O)OCc1ccccc1 [Example 6-005, Benzyl (1-hydroxy-1,3-dihydrobenzo[c][1,2]oxaborole-6-carbonyl)-L-valinate]",8.00 to 9.29,–,6.00 to 7.68
"CC(C)[C@H](NC(=O)c1ccc2c(c1)B(O)OC2)C(=O)OCc1ccc(F)cc1 [Example 6-030, 4-Fluorobenzyl (1-hydroxy-1,3-dihydrobenzo[c][1,2]oxaborole-6-carbonyl)-L-valinate]",8.00 to 9.29,–,6.00 to 7.68
"Cc1c(C(=O)N[C@H](C(=O)OCc2ccc(OCCN3CCCC3)c(F)c2)C(C)C)ccc2c1B(O)OC2 [Example 6-242, 3-Fluoro-4-(2-(pyrrolidin-1-yl)ethoxy)benzyl (1-hydroxy-7-methyl-1,3-dihydrobenzo[c][1,2]oxaborole-6-carbonyl)-L-valinate]",8.00 to 9.29,–,≥ 7.70
"Cc1c(C(=O)N[C@H](C(=O)OCCC(C)(C)O)C(C)C)ccc2c1B(O)OC2 [Example 6-209, 3-hydroxy-3-methylbutyl (1-hydroxy-7-methyl-1,3-dihydrobenzo[c][1,2]oxaborole-6-carbonyl)-L-valinate]",8.00 to 9.29,–,6.00 to 7.68
"CC(C)[C@H](NC(=O)c1ccc2c(c1F)B(O)OC2)C(=O)OCc1ccc(F)cc1 [Example 6-036, 4-Fluorobenzyl (7-fluoro-1-hydroxy-1,3-dihydrobenzo[c][1,2]oxaborole-6-carbonyl)-L-valinate]",5.30 to 8.00,–,6.00 to 7.68
"Cc1c(C(=O)N[C@H](C(=O)OCc2cccc(CN3CCNCC3)c2)C(C)C)ccc2c1B(O)OC2 [Example 6-117, 3-(Piperazin-1-ylmethyl)benzyl (1-hydroxy-7-methyl-1,3-dihydrobenzo[c][1,2]oxaborole-6-carbonyl)-L-valinate]",5.30 to 8.00,–,≤ 6.00
"CC[S+]([O-])c1ccc(COC(=O)[C@@H](NC(=O)c2ccc3c(c2C)B(O)OC3)C(C)C)cc1 (stereo partly drawn) [Example 6-094, 4-(Ethylsulfinyl)benzyl (1-hydroxy-7-methyl-1,3-dihydrobenzo[c][1,2]oxaborole-6-carbonyl)-L-valinate]",8.00 to 9.29,–,6.00 to 7.68
"Cc1c(C(=O)NC(C(=O)OCc2ccc(F)cc2)C(C)(C)F)ccc2c1B(O)OC2 (centres unmarked) [Example 6-091, 4-Fluorobenzyl 3-fluoro-2-(1-hydroxy-7-methyl-1,3-dihydrobenzo[c][1,2]oxaborole-6-carboxamido)-3-methylbutanoate]",> 9.30,–,≥ 7.70
"Cc1c(C(=O)N[C@H](C(=O)OCc2cccc(CN(C)C)c2)C(C)C)ccc2c1B(O)OC2 [Example 6-081, 3-((Dimethylamino)methyl)benzyl (1-hydroxy-7-methyl-1,3-dihydrobenzo[c][1,2]oxaborole-6-carbonyl)-L-valinate]",> 9.30,–,6.00 to 7.68
"Cc1c(C(=O)N[C@H](C(=O)OCC2COC2)C(C)C)ccc2c1B(O)OC2 [Example 6-150, Oxetan-3-ylmethyl (1-hydroxy-7-methyl-1,3-dihydrobenzo[c][1,2]oxaborole-6-carbonyl)-L-valinate]",8.00 to 9.29,–,6.00 to 7.68
